Measurements: patent US20260242416A1, “ANTIMICROBIAL PEPTIDES” (priority 2023, published 2026)
Where a SMILES comes first, the peptide text is derived from it.

Assays:
[1] = system: Salmonella enterica serovar Enteritidis (human clinical isolate); assay type: cell-based; conditions: serovar Enteritidis (human clinical isolate)
Protocol: (§1) Bacteria were grown overnight at 37° C. in Mueller-Hinton Broth (MHB; Sigma-Aldrich, St. Louis. MO, USA) in a shaking incubator and aliquoted into cryovials with a 50% glycerol solution in a 1:1 ratio. No additives were added to the MHB during the growth of bacterial isolates. Glycerol stocks were stored at −80° C.
(§2) The antimicrobial activity of the putative AMPs was determined by a broth microdilution assay as described by the Clinical and Laboratory Standards Institute, with the published adaptations for testing of cationic peptides. Escherichia coli 25922 and Staphylococcus aureus 29213 isolates were purchased from the American Type Culture Collection (ATCC; Manassas, VA, USA). A human clinical isolate of Salmonella enterica serovar Enteritidis was provided by the BC Centre for Disease Control. Bacteria from stocks stored at −80° C. were streaked onto nonselective Columbia blood agar with 5% sheep blood (Oxoid) and incubated overnight at 37° C. Next, 2-4 colonies were streaked onto a new agar plate to ensure uniform health of colonies used in the broth microdilution assay. Isolated colonies were suspended in MHB and the optical density was measured with a spectrophotometer to create an initial inoculum concentration of approximately 1×10^8 cfu/mL. The inoculum was diluted 1:250 to a final concentration of 2-8×10^5 cfu/mL, which was confirmed by performing a Total Viability Count (TVC). The TVC consisted of plating a 1:1000 dilution of the final inoculum on nonselective media and was also used to confirm the health and purity of the inoculum in each trial.
(§3) Lyophilized 80 μg peptide aliquots synthesized by GenScript (Piscataway, NJ, USA) were resuspended to 1.28 mg/mL with UltraPure water (Thermo Fisher Scientific, Waltham, MA, USA) and serially diluted in polypropylene 96-well microtiter plates (Greiner Bio-One #650261, Kremsmunster, Austria) from 128 down to 0.5 μg/mL. Two columns per plate were reserved for growth and sterility controls. Inoculum was added to the wells containing the peptide and the growth control. Plates were incubated for 20-24 h at 37° C. The minimum inhibitory concentration (MIC) was determined as the lowest peptide concentration where there was no visible bacterial growth.

E. coli ATCC 25922 = assay type: cell-based, Escherichia coli; conditions: ATCC 25922
Protocol: as §1, §2, §3

S. aureus ATCC 29213 = assay type: cell-based, Staphylococcus aureus; conditions: ATCC 29213
Protocol: as §1, §2, §3

CC(C)[C@H](N)C(=O)N[C@@H](CCCCN)C(=O)N[C@@H](CS)C(=O)N[C@@H](CCCNC(=N)N)C(=O)N[C@H](C(=O)N[C@@H](CCCNC(=N)N)C(=O)N[C@@H](CCCNC(=N)N)C(=O)O)C(C)C [ApMe1, VKCRVRR] (H-VKCRVRR-OH; N-terminus and C-terminus assumed)
>128/>128/>128 ug/mL: MIC (ug/mL) S. Enteritidis [1] | MIC (ug/mL) E. coli (E. coli ATCC 25922) | MIC (ug/mL) S. aureus (S. aureus ATCC 29213)

CC(C)C[C@H](NC(=O)[C@H](C)NC(=O)[C@@H](NC(=O)[C@H](CC(=O)O)NC(=O)[C@H](CCCNC(=N)N)NC(=O)[C@H](CCCCN)NC(=O)[C@H](Cc1ccccc1)NC(=O)[C@@H](NC(=O)[C@H](CCC(=O)O)NC(=O)[C@H](CCCCN)NC(=O)[C@H](Cc1c[nH]cn1)NC(=O)[C@H](C)NC(=O)CN)C(C)C)[C@@H](C)O)C(=O)N[C@H](C(=O)N[C@@H](CCCCN)C(=O)N[C@@H](CCC(=O)O)C(=O)N[C@@H](C)C(=O)N[C@@H](C)C(=O)N[C@@H](CCCCN)C(=O)N[C@@H](CCCCN)C(=O)N[C@@H](C)C(=O)N[C@@H](CCCCN)C(=O)N[C@@H](CCCCN)C(=O)O)[C@@H](C)O [ApMe2] (H-GAHKEVFKRDTALTKEAAKKAKK-OH; N-terminus and C-terminus assumed)
>128/>128/>128 ug/mL: MIC (ug/mL) S. Enteritidis [1] | MIC (ug/mL) E. coli (E. coli ATCC 25922) | MIC (ug/mL) S. aureus (S. aureus ATCC 29213)

CC[C@H](C)[C@H](NC(=O)[C@H](CC(C)C)NC(=O)CNC(=O)[C@H](Cc1c[nH]c2ccccc12)NC(=O)CN)C(=O)N[C@@H](CC(N)=O)C(=O)N[C@H](C(=O)N[C@@H](CCCCN)C(=O)N[C@H](C(=O)N1CCC[C@H]1C(=O)N1CCC[C@H]1C(=O)N[C@H](C(=O)N[C@@H](CC(C)C)C(=O)N[C@@H](Cc1c[nH]cn1)C(=O)N[C@@H](CCCCN)C(=O)N[C@H](C(=O)N[C@@H](CO)C(=O)N[C@H](C(=O)N1CCC[C@H]1C(=O)N[C@@H](CC(C)C)C(=O)N[C@H](C(=O)N[C@@H](CO)C(=O)N[C@@H](CCCCN)C(=O)N[C@@H](CCCNC(=N)N)C(=O)O)C(C)C)C(C)C)C(C)C)C(C)C)[C@@H](C)CC)[C@@H](C)CC [ApMe3] (H-GWGLINIKIPPVLHKVSVPLVSKR-OH; N-terminus and C-terminus assumed)
>128/>128/>128 ug/mL: MIC (ug/mL) S. Enteritidis [1] | MIC (ug/mL) E. coli (E. coli ATCC 25922) | MIC (ug/mL) S. aureus (S. aureus ATCC 29213)

CC[C@H](C)[C@H](NC(=O)[C@H](CC(C)C)NC(=O)[C@H](CO)NC(=O)[C@H](CCCCN)NC(=O)[C@H](CC(C)C)NC(=O)[C@@H](NC(=O)[C@H](Cc1ccc(O)cc1)NC(=O)[C@H](CCCNC(=N)N)NC(=O)[C@H](CCCNC(=N)N)NC(=O)[C@H](Cc1c[nH]cn1)NC(=O)[C@H](CCCNC(=N)N)NC(=O)[C@H](CCC(=O)O)NC(=O)[C@H](Cc1c[nH]cn1)NC(=O)[C@H](CCCNC(=N)N)NC(=O)[C@H](CC(C)C)NC(=O)[C@H](CCCCN)NC(=O)[C@@H](NC(=O)[C@H](Cc1c[nH]cn1)NC(=O)[C@H](Cc1c[nH]cn1)NC(=O)[C@H](Cc1c[nH]cn1)NC(=O)[C@@H](N)CCCCN)[C@@H](C)CC)[C@@H](C)CC)C(=O)O [ApMe4] (H-KHHHIKLRHERHRRYILKSLI-OH; N-terminus and C-terminus assumed)
>128/>128/>128 ug/mL: MIC (ug/mL) S. Enteritidis [1] | MIC (ug/mL) E. coli (E. coli ATCC 25922) | MIC (ug/mL) S. aureus (S. aureus ATCC 29213)

CC[C@H](C)[C@H](NC(=O)[C@@H](N)CO)C(=O)N[C@@H](CC(C)C)C(=O)N[C@@H](CO)C(=O)N[C@H](C(=O)N[C@@H](CC(C)C)C(=O)N[C@@H](CO)C(=O)N[C@@H](Cc1c[nH]cn1)C(=O)N[C@@H](CCCCN)C(=O)N[C@@H](CCCNC(=N)N)C(=O)O)[C@@H](C)O [ApMe5, SILSTLSHKR] (H-SILSTLSHKR-OH; N-terminus and C-terminus assumed)
>128/>128/>128 ug/mL: MIC (ug/mL) S. Enteritidis [1] | MIC (ug/mL) E. coli (E. coli ATCC 25922) | MIC (ug/mL) S. aureus (S. aureus ATCC 29213)

CC[C@H](C)[C@H](NC(=O)[C@H](CCCCN)NC(=O)[C@H](CCCNC(=N)N)NC(=O)[C@H](C)NC(=O)[C@@H](N)CCCNC(=N)N)C(=O)N[C@@H](CCCNC(=N)N)C(=O)N[C@@H](CCCNC(=N)N)C(=O)N[C@@H](CCCNC(=N)N)C(=O)N[C@@H](CCCNC(=N)N)C(=O)NCC(=O)N[C@@H](CO)C(=O)N[C@@H](CC(C)C)C(=O)N[C@@H](CCCNC(=N)N)C(=O)N[C@@H](Cc1c[nH]cn1)C(=O)N[C@@H](CS)C(=O)N[C@H](C(=O)N[C@H](C(=O)N[C@H](C(=O)N1CCC[C@H]1C(=O)N[C@@H](CO)C(=O)N[C@H](C(=O)N1CCC[C@H]1C(=O)N[C@@H](CO)C(=O)NCC(=O)N[C@@H](CCCNC(=N)N)C(=O)O)[C@@H](C)O)[C@@H](C)CC)[C@@H](C)O)C(C)C [ApMe6] (H-RARKIRRRRGSLRHCVTIPSTPSGR-OH; N-terminus and C-terminus assumed)
>128/>128/>128 ug/mL: MIC (ug/mL) S. Enteritidis [1] | MIC (ug/mL) E. coli (E. coli ATCC 25922) | MIC (ug/mL) S. aureus (S. aureus ATCC 29213)

CC(C)[C@H](NC(=O)[C@H](CCCCN)NC(=O)CNC(=O)[C@H](C)NC(=O)CNC(=O)[C@H](C)NC(=O)[C@H](C)N)C(=O)N[C@H](C(=O)N[C@@H](CCCCN)C(=O)N[C@@H](CO)C(=O)N[C@@H](C)C(=O)N[C@@H](CCC(N)=O)C(=O)N[C@@H](CCCCN)C(=O)N[C@@H](C)C(=O)N[C@@H](CCC(N)=O)C(=O)N[C@@H](CCCCN)C(=O)N[C@@H](C)C(=O)N[C@@H](CCCCN)C(=O)O)[C@@H](C)O [BoAr1, AAGAGKVTKSAQKAQKAK] (H-AAGAGKVTKSAQKAQKAK-OH; N-terminus and C-terminus assumed)
>128/>128/>128 ug/mL: MIC (ug/mL) S. Enteritidis [1] | MIC (ug/mL) E. coli (E. coli ATCC 25922) | MIC (ug/mL) S. aureus (S. aureus ATCC 29213)

CC[C@H](C)[C@H](NC(=O)[C@H](CCCCN)NC(=O)[C@H](CC(C)C)NC(=O)[C@H](Cc1c[nH]c2ccccc12)NC(=O)[C@@H]1CCCN1C(=O)[C@H](Cc1c[nH]cn1)NC(=O)[C@H](CCCCN)NC(=O)[C@H](CC(C)C)NC(=O)[C@H](CS)NC(=O)[C@H](CCC(=O)O)NC(=O)[C@H](C)NC(=O)[C@H](C)NC(=O)[C@@H](NC(=O)[C@H](C)N)[C@@H](C)O)C(=O)N[C@@H](CCCCN)C(=O)N[C@@H](CCCCN)C(=O)O [BoAr2, ATAAECLKHPWLKIKK] (H-ATAAECLKHPWLKIKK-OH; N-terminus and C-terminus assumed)
>128/>128/>128 ug/mL: MIC (ug/mL) S. Enteritidis [1] | MIC (ug/mL) E. coli (E. coli ATCC 25922) | MIC (ug/mL) S. aureus (S. aureus ATCC 29213)

CC[C@H](C)[C@H](N)C(=O)N[C@H](C(=O)N[C@@H](CCCNC(=N)N)C(=O)N[C@@H](C)C(=O)N[C@H](C(=O)N[C@@H](C)C(=O)N[C@@H](C)C(=O)N[C@@H](CCC(=O)O)C(=O)N[C@@H](CS)C(=O)N[C@@H](CC(C)C)C(=O)N[C@@H](CCCCN)C(=O)N[C@@H](Cc1c[nH]cn1)C(=O)N1CCC[C@H]1C(=O)N[C@@H](Cc1c[nH]c2ccccc12)C(=O)N[C@@H](CC(C)C)C(=O)N[C@@H](CCCCN)C(=O)N[C@H](C(=O)N[C@@H](CCCCN)C(=O)N[C@@H](CCCCN)C(=O)O)[C@@H](C)CC)[C@@H](C)O)[C@@H](C)CC [BoAr3, IIRATAAECLKHPWLKIKK] (H-IIRATAAECLKHPWLKIKK-OH; N-terminus and C-terminus assumed)
>128/>128/>128 ug/mL: MIC (ug/mL) S. Enteritidis [1] | MIC (ug/mL) E. coli (E. coli ATCC 25922) | MIC (ug/mL) S. aureus (S. aureus ATCC 29213)

CC(C)C[C@H](NC(=O)[C@H](CO)NC(=O)[C@H](C)NC(=O)[C@@H](NC(=O)[C@@H](N)CO)C(C)C)C(=O)N[C@@H](C)C(=O)N[C@@H](CCCCN)C(=O)N[C@@H](CC(N)=O)C(=O)N[C@@H](CO)C(=O)N[C@@H](C)C(=O)N[C@@H](Cc1c[nH]c2ccccc12)C(=O)N1CCC[C@H]1C(=O)N[C@H](C(=O)N[C@@H](CO)C(=O)N[C@@H](CC(C)C)C(=O)N[C@@H](CCCCN)C(=O)N[C@@H](CCCNC(=N)N)C(=O)O)C(C)C [BoAr4, SVASLAKNSAWPVSLKR] (H-SVASLAKNSAWPVSLKR-OH; N-terminus and C-terminus assumed)
>128/>128/>128 ug/mL: MIC (ug/mL) S. Enteritidis [1] | MIC (ug/mL) E. coli (E. coli ATCC 25922) | MIC (ug/mL) S. aureus (S. aureus ATCC 29213)
